This note sets out measurements from article PMC5760651, “Peptidomimetic blockade of MYB in acute myeloid leukemia” (Nature Communications, 2018).

Non-standard residues stand in square brackets, D forms with d. Residues, ends and D or L forms follow the SMILES beside them. No end group written: not given here. *: point of attachment. Biotin = O=C1N[C@H]2[C@H](CS[C@H]2CCCCC(=O)*)N1 Some results are limits rather than exact numbers.

Series [1] deals with MOLM13, OCIAML2, and K562 cells. Briefly: Cell viability with L-amino acid containing peptides. It counts as cell-based. The following applies: 20 μM, 2 days, three biological replicates. Here is the method: (§1) Cells were resuspended and plated at a concentration of 2 × 10^5 cells in 200 μl in 96-well tissue culture plates. Media with peptides was replaced every 48 h. To assess the number of viable cells, cells were resuspended in PBS and 10 µl of suspension was mixed in a 1:1 ratio with 0.4% Trypan Blue (Thermo Fisher) and counted using a hemacytometer (Hausser Scientific, Horsham, PA, USA). To assess viability using an ATP-based assay, cell viability was assessed using the CellTiter-Glo Luminescent Viability assay, according to the manufacturer’s instructions (Promega). Luminescence was recorded using the Infinite M1000Pro plate reader using integration time of 250 ms (Tecan).
Supplementary Figure 5. Viability of MOLM13, OCIAML2, and K562 cells, treated for 2 days with control PBS (black), 20 μM TATMYG (blue), and 20 μM TATMYB (red). Error bars […]
between treatment conditions.
(1 picture or pasted object on this page, not shown here)

Series [2] concerns MOLM-13, MV-411, ML-2 and HL-60 cells. Briefly: Cell viability of AML cell lines. Type of series: cell-based, human. The following applies: 6 days, 20 μM TG1, TG2 or TG3, 10 and 20 μM MYBMIM, peptide replacement every 48 h, compared to untreated control. How it is done:
as §1

Series [3] can be described thus: Plasma pharmacokinetics of BIO-MYBMIM, spectrophotometric avidin assay. It counts as in vivo, mouse. The following applies: C57BL/6J mice, single dose 25 mg/kg IP. Here is the method: All mouse experiments were carried out in accordance with the Memorial Sloan Kettering Institutional Animal Care and Use Committee. For toxicity studies, female C57BL/6J mice (The Jackson Laboratory, Bar Harbor, Maine, USA) were treated with MYBMIM peptide suspended in PBS and administered daily through intraperitoneal injection at a dose of 25 mg/kg for a total of 7 days. Mice were sacrificed at the end of treatment for hematologic, biochemical and histologic analyses. For pharmacokinetic studies, C57BL/6J mice (The Jackson Laboratory, Bar Harbor, Maine, USA) were treated with a single IP injection of 25 mg/kg BIO-MYBMIM, and blood plasma was collected 30 min, 2 h, 4 h, and 24 h post-injection. Quantification of BIO-MYBMIM was measured using the Quant-Tag Biotin kit (Vector Labs, cat. # BDK-2000) following the manufacturer instructions. For patient-derived xenografts, two hundred thousand primary AML MLL-rearranged leukemia cells were suspended in […] of PBS and transplanted via tail vein injection into 8-week-old sublethally irradiated (200 rad) female NOD.Cg-Prkdc(scid)Il2rg(tm1Wjl)/SzJ mice (The Jackson Laboratory, Bar Harbor, Maine, USA). […] Mice were treated from days 3–17 of this study for a total of 14 days and then monitored daily with clinical examination for survival analysis.

Series [4] deals with FITC-conjugated MYB peptide (L-amino acid containing counterpart of MYBMIM) (UniProt P10242). Briefly: MST.
The target in series [5] is T1, purified recombinant CBP KIX domain (UniProt P45481 586-665).
T1 construct: also called KIX domain of CBP; source: E. coli BL21(DE3), pGEX-KIX, purified (glutathione agarose, thrombin cleavage, MonoS cation exchange)
Briefly: MST. The note with it: both partners purified.

T1 sequence (P45481 586-665): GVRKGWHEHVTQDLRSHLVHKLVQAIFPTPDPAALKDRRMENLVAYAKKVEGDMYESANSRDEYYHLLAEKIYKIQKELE

“Ac-YGRKKRRQRRRGGKRIKELELLLMSTENELK-NH2 [TATMYB]”: the Viability result in series [1] is “no significant differences”.
Regarding `CC[C@@H](C)[C@@H](NC(=O)[C@@H](CCCCN)NC(=O)[C@@H](CCC(=O)O)NC(=O)[C@@H](CC(C)C)NC(=O)[C@@H](CCC(=O)O)NC(=O)[C@@H](CC(C)C)NC(=O)[C@@H](CC(C)C)NC(=O)CNC(=O)[C@@H](CCSC)NC(=O)[C@@H](CO)NC(=O)[C@H](NC(=O)[C@@H](CCC(=O)O)NC(=O)[C@@H](CC(N)=O)NC(=O)[C@@H](CCC(=O)O)NC(=O)[C@@H](CC(C)C)NC(=O)[C@@H](CCCCN)NC(C)=O)[C@H](C)O)C(=O)N[C@H](CCCNC(=N)N)C(=O)N[C@H](CCCCN)C(=O)NCC(=O)NCC(=O)N[C@H](CCCNC(=N)N)C(=O)N[C@H](CCCNC(=N)N)C(=O)N[C@H](CCCNC(=N)N)C(=O)N[C@H](CCC(N)=O)C(=O)N[C@H](CCCNC(=N)N)C(=O)N[C@H](CCCNC(=N)N)C(=O)N[C@H](CCCCN)C(=O)N[C@H](CCCCN)C(=O)N[C@H](CCCNC(=N)N)C(=O)NCC(=O)N[C@H](Cc1ccc(O)cc1)C(N)=O` [TG1] (Ac-[dK][dL][dE][dN][dE][dT][dS][dM]G[dL][dL][dE][dL][dE][dK][dI][dR][dK]GG[dR][dR][dR][dQ][dR][dR][dK][dK][dR]G[dY]-NH2), the “Growth of AML cell lines” value in series [2] is “inactive”.
The same measure, in the same setting: the entry for `CC[C@@H](C)[C@@H](NC(=O)[C@@H](CCCCN)NC(=O)[C@@H](CCC(=O)O)NC(=O)[C@@H](CC(C)C)NC(=O)[C@@H](CCC(=O)O)NC(=O)[C@@H](CC(C)C)NC(=O)[C@@H](CC(C)C)NC(=O)CNC(=O)[C@@H](CCSC)NC(=O)[C@@H](CO)NC(=O)[C@H](NC(=O)[C@@H](CCC(=O)O)NC(=O)[C@@H](CC(N)=O)NC(=O)CNC(=O)[C@@H](CC(C)C)NC(=O)[C@@H](CCCCN)NC(C)=O)[C@H](C)O)C(=O)N[C@H](CCCNC(=N)N)C(=O)N[C@H](CCCCN)C(=O)NCC(=O)NCC(=O)N[C@H](CCCNC(=N)N)C(=O)N[C@H](CCCNC(=N)N)C(=O)N[C@H](CCCNC(=N)N)C(=O)N[C@H](CCC(N)=O)C(=O)N[C@H](CCCNC(=N)N)C(=O)N[C@H](CCCNC(=N)N)C(=O)N[C@H](CCCCN)C(=O)N[C@H](CCCCN)C(=O)N[C@H](CCCNC(=N)N)C(=O)NCC(=O)N[C@H](Cc1ccc(O)cc1)C(N)=O` [TG2] (Ac-[dK][dL]G[dN][dE][dT][dS][dM]G[dL][dL][dE][dL][dE][dK][dI][dR][dK]GG[dR][dR][dR][dQ][dR][dR][dK][dK][dR]G[dY]-NH2) is “inactive”.
On to “Ac-YGRKKRRQRRRGGKRIKELELLLMSTENGLK-NH2 [TATMYG]”, for which the Viability entry in series [1] was “no significant differences”.
Turning to `CC[C@@H](C)[C@@H](NC(=O)[C@@H](CCCCN)NC(=O)[C@@H](CCC(=O)O)NC(=O)[C@@H](CC(C)C)NC(=O)[C@@H](CCC(=O)O)NC(=O)[C@@H](CC(C)C)NC(=O)[C@@H](CC(C)C)NC(=O)[C@@H](CC(C)C)NC(=O)[C@@H](CCSC)NC(=O)[C@@H](CO)NC(=O)[C@H](NC(=O)[C@@H](CCC(=O)O)NC(=O)[C@@H](CC(N)=O)NC(=O)[C@@H](CCC(=O)O)NC(=O)[C@@H](CC(C)C)NC(=O)[C@@H](CCCCN)NC(C)=O)[C@H](C)O)C(=O)N[C@H](CCCNC(=N)N)C(=O)N[C@H](CCCCN)C(=O)NCC(=O)NCC(=O)N[C@H](CCCNC(=N)N)C(=O)N[C@H](CCCNC(=N)N)C(=O)N[C@H](CCCNC(=N)N)C(=O)N[C@H](CCC(N)=O)C(=O)N[C@H](CCCNC(=N)N)C(=O)N[C@H](CCCNC(=N)N)C(=O)N[C@H](CCCCN)C(=O)N[C@H](CCCCN)C(=O)N[C@H](CCCNC(=N)N)C(=O)NCC(=O)N[C@H](Cc1ccc(O)cc1)C(=O)N[C@H](CCCCNC(=O)CCCC[C@@H]1SC[C@@H]2NC(=O)N[C@@H]21)C(N)=O` [BIO-MYBMIM] (Ac-[dK][dL][dE][dN][dE][dT][dS][dM][dL][dL][dL][dE][dL][dE][dK][dI][dR][dK]GG[dR][dR][dR][dQ][dR][dR][dK][dK][dR]G[dY][dK](Biotin)-NH2), the Plasma elimination entry in series [3] is reported as “biphasic elimination”. The “Time of peak plasma peptide levels post injection” value in series [3] (plasma collected at 30 min, 2 h, 4 h, 24 h) is not above 30 min.
“purified recombinant CBP KIX domain (from UniProt P45481 586-665) (domain or fragment)”: the Kd in series [4] is 4.2 µM.

B1: FITC-conjugated TG1 (peptide)
chain: [dK][dL][dE][dN][dE][dT][dS][dM]G[dL][dL][dE][dL][dE][dK][dI][dR][dK]GG[dR][dR][dR][dQ][dR][dR][dK][dK][dR]G[dY]-NH2
modifications: also: FITC-conjugated, site not given here
In the case of B1, the Kd in series [5] is 59.2 ± 12.4 µM.

B2: FITC-conjugated MYBMIM (peptide)
chain: [dK][dL][dE][dN][dE][dT][dS][dM][dL][dL][dL][dE][dL][dE][dK][dI][dR][dK]
modifications: also: FITC-conjugated, site not given here, retro-inverso TAT delivery segment not in chain
For the molecule B2, in series [5], the Kd was found to be 21.3 ± 2.9 µM.

B3: FITC-conjugated TG3 (peptide)
chain: [dK][dL]G[dN][dE][dT][dS][dM]G[dL][dL][dE][dL][dE][dK][dI]G[dK]GG[dR][dR][dR][dQ][dR][dR][dK][dK][dR]G[dY]-NH2
modifications: also: FITC-conjugated, site not given here
Take B3: the Kd in series [5] was determined as 114 ± 36.6 µM.

B4: FITC-conjugated TG2 (peptide)
chain: [dK][dL]G[dN][dE][dT][dS][dM]G[dL][dL][dE][dL][dE][dK][dI][dR][dK]GG[dR][dR][dR][dQ][dR][dR][dK][dK][dR]G[dY]-NH2
modifications: also: FITC-conjugated, site not given here
On to B4, for which the Kd in series [5] worked out at 75.1 ± 12.5 µM.

For orientation: Kd means the constant that tells how readily two partners part at equilibrium.
